In one test the target is Chaperonin GroEL (Escherichia coli (strain K12), UniProt P0A6F5).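 Note: inhibition of GroEL ATPase activity with ATP as substrate, 60 min incubation, spectrometric read-out, recombinant enzyme produced in Escherichia coli DH5alpha.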
Test [1] addresses T1, E. coli GroEL/ES (Escherichia coli, UniProt P0A6F5).
Description: Inhibition of Escherichia coli GroEL expressed in Escherichia coli DH5alpha/Escherichia coli GroES expressed in Escherichia coli BL21 (DE3) assessed as reduction in GroEL/GroES-mediated denatured rhodanese refolding by measuring rhodanese enzyme activity after 45 mins by Fe(SCN)3 dye based spectrometric analysis
The target of test [2] is T2, Thiosulfate sulfurtransferase (Homo sapiens, UniProt Q16762).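 Note: native rhodanese of unspecified species, enzyme activity read after 45 min by spectrophotometric detection of Fe(SCN)3 colour, IC50 reflects activity reduction.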
T2 sequence (Q16762 whole entry): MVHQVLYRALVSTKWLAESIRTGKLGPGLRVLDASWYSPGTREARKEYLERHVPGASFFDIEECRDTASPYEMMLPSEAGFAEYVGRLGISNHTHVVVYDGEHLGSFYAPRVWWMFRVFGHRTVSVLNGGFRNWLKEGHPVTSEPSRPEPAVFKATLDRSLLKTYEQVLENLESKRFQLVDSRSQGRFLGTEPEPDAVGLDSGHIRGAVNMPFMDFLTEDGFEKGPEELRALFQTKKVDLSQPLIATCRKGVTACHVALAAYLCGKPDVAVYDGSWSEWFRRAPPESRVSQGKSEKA
The class given is ADME.
Description: Inhibition of native rhodanese (unknown origin) assessed as reduction in rhodanese enzyme activity after 45 mins by Fe(SCN)3 dye based spectrometric analysis

For another test, the target named is HSP60/HSP10 (Homo sapiens, UniProt P10809).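 Note: His-tagged human HSP60 with HSP10 refolding denatured MDH, read as MDH activity on mesoxalate by malachite green spectrometry, inhibition of refolding.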
The target of test [3] is T1, E. coli GroEL/ES. The source holds these as a separate data set.
Description: Inhibition of Escherichia coli GroEL expressed in Escherichia coliDH5alpha/Escherichia coli GroES expressed in Escherichia coli BL21 (DE3) assessed as reduction in GroEL/GroES-mediated denatured soluble pig heart MDH refolding by measuring MDH enzyme activity using sodium mesoxalate as substrate after 20 to 40 mins by malachite green dye based spectrometric analysis

Structures can show the parent of a compound that is named as a salt.

Chain of HSP60/HSP10 (P10809 whole entry): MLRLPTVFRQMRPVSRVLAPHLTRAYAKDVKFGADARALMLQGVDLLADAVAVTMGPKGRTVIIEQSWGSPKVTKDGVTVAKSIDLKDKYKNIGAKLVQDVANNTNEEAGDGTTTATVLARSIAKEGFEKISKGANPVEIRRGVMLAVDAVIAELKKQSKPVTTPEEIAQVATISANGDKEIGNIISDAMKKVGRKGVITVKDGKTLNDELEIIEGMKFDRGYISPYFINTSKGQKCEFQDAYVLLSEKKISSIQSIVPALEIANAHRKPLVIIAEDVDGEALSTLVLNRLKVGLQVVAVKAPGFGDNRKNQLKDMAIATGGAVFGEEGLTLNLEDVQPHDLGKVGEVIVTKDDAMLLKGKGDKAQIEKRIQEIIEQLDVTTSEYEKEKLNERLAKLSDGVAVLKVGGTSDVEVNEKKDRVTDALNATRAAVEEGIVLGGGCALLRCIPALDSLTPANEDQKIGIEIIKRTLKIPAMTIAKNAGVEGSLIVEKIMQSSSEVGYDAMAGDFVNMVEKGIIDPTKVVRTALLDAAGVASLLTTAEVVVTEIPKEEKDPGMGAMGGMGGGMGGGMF
Chain of HSP60/HSP10 (P61604 whole entry, further chain): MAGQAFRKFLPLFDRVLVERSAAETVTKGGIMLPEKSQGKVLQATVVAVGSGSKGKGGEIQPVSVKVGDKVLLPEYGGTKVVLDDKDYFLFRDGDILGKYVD
T1 sequence (P0A6F5 whole entry, looked up): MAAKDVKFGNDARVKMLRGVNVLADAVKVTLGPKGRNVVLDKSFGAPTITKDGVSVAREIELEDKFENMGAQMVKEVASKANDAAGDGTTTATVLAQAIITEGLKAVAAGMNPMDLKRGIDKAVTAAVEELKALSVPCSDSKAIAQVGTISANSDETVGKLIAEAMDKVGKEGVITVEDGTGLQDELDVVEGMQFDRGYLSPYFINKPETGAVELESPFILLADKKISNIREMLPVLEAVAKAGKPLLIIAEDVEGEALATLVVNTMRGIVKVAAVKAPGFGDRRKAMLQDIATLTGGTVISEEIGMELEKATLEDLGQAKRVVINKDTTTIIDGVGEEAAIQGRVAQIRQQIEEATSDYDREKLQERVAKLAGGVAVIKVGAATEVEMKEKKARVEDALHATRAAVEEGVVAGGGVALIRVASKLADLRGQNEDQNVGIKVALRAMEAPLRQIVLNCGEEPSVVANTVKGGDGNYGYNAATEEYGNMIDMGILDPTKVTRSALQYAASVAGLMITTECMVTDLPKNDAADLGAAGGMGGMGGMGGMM
Chain of Chaperonin GroEL (P0A6F5 whole entry): as the sequence (P0A6F5 whole entry, looked up) above
Description for Chaperonin GroEL: Inhibition of ATPase activity of Escherichia coli GroEL expressed in Escherichia coliDH5alpha incubated for 60 mins using ATP by spectrometric analysis
Description for HSP60/HSP10: Inhibition of human N-terminal octa-His-tagged HSP60 expressed in Escherichia coli Rosetta(DE3) pLysS/human HSP10 expressed in Escherichia coli Rosetta(DE3) assessed as reduction in HSP60/HSP10-mediated denatured MDH refolding by measuring MDH enzyme activity using sodium mesoxalate as substrate after 40 to 60 mins by malachite green dye based spectrometric analysis

With `O=C(/C=C/c1ccccc1)c1ccc(O)cc1` [4'-HYDROXYCHALCONE], the IC50 on Chaperonin GroEL is > 250 µM; against E. coli GroEL/ES [1], 56 µM; in test [2], > 100 µM; against HSP60/HSP10, 20 µM; against E. coli GroEL/ES [3] it was 21 µM.
Take `O=C(O[C@@H]1Cc2c(O)cc(O)cc2O[C@@H]1c1cc(O)c(O)c(O)c1)c1cc(O)c(O)c(O)c1` [EPIGALOCATECHIN GALLATE]: the IC50 is > 250 µM at Chaperonin GroEL; 0.58 µM at E. coli GroEL/ES [1]; 7.3 µM in test [2]; 2.3 µM against HSP60/HSP10; 0.36 µM against E. coli GroEL/ES [3].
With `O=C(O)C1=CC(=C(c2ccc(O)c(C(=O)O)c2)c2ccc(O)c(C(=O)O)c2)C=CC1=O` [AURINTRICARBOXYLIC ACID], the IC50 was > 250 µM on Chaperonin GroEL; 0.57 µM at E. coli GroEL/ES [1]; > 100 µM in test [2]; 3.2 µM at HSP60/HSP10; 0.9 µM on E. coli GroEL/ES [3].
As to `CC(COc1ccccc1)N(CCCl)Cc1ccccc1` (centres undefined) [PHENOXYBENZAMINE HYDROCHLORIDE], the IC50 at Chaperonin GroEL is > 250 µM; against E. coli GroEL/ES [1], 129 µM; in test [2], > 100 µM; at HSP60/HSP10 it was 78 µM; against E. coli GroEL/ES [3], 40 µM.
Turning to `CN(C)c1ccc2nc3ccc(=[N+](C)C)cc-3sc2c1` [METHYLENE BLUE], the IC50 is 6.1 µM in test [2] and > 100 µM at HSP60/HSP10.
Take `Cc1cc2nc3c(=O)[nH]c(=O)nc-3n(C[C@H](O)[C@H](O)[C@H](O)CO)c2cc1C` [RIBOFLAVIN]: the IC50 on Chaperonin GroEL is > 250 µM; on E. coli GroEL/ES [1], 18 µM; on HSP60/HSP10 it was > 100 µM; on E. coli GroEL/ES [3], > 100 µM.
Turning to `CC[C@H](C)[C@H]1O[C@]2(C=C[C@@H]1C)C[C@@H]1C[C@@H](C/C=C(\C)[C@@H](O[C@H]3C[C@H](OC)[C@@H](O[C@H]4C[C@H](OC)[C@@H](O)[C@H](C)O4)[C@H](C)O3)[C@@H](C)/C=C/C=C3\CO[C@@H]4[C@H](O)C(C)=C[C@@H](C(=O)O1)[C@]34O)O2` [ABAMECTIN COMPONENT B1A], the IC50 against Chaperonin GroEL was > 250 µM; against E. coli GroEL/ES [1], 32 µM; in test [2] it was > 100 µM; against HSP60/HSP10, 15 µM; against E. coli GroEL/ES [3], 9.8 µM.
`COc1cc(-c2ccc(/N=N/c3ccc4c(S(=O)(=O)O)cc(S(=O)(=O)O)c(N)c4c3O)c(OC)c2)ccc1/N=N/c1ccc2c(S(=O)(=O)O)cc(S(=O)(=O)O)c(N)c2c1O`: the IC50 against E. coli GroEL/ES [1] amounted to 2 µM; in test [2], 8.5 µM; on E. coli GroEL/ES [3], 3.9 µM.
Take `C=C1CC[C@H](O)C/C1=C/C=C1\CCC[C@]2(C)[C@@H]([C@H](C)/C=C/[C@H](C)C(C)C)CC[C@@H]12` [ERGOCALCIFEROL]: the IC50 on Chaperonin GroEL is > 250 µM; against E. coli GroEL/ES [1], 41 µM; against HSP60/HSP10, 45 µM; against E. coli GroEL/ES [3], 28 µM.
Take `O=C(OC[C@H]1O[C@@H](OC(=O)c2cc(O)c(O)c(OC(=O)c3cc(O)c(O)c(O)c3)c2)[C@H](OC(=O)c2cc(O)c(O)c(OC(=O)c3cc(O)c(O)c(O)c3)c2)[C@@H](OC(=O)c2cc(O)c(O)c(OC(=O)c3cc(O)c(O)c(O)c3)c2)[C@@H]1OC(=O)c1cc(O)c(O)c(OC(=O)c2cc(O)c(O)c(O)c2)c1)c1cc(O)c(O)c(OC(=O)c2cc(O)c(O)c(O)c2)c1` [TANNIC ACID]: the IC50 at Chaperonin GroEL came out at 137 µM; against E. coli GroEL/ES [1], 1 µM; in test [2] it was 39 µM; against HSP60/HSP10, 3.8 µM; against E. coli GroEL/ES [3] it was 0.87 µM.
With `CC1=C(/C=C/C(C)=C/C=C/C(C)=C/C(=O)O)C(C)(C)CCC1` [TRETINOIN], the IC50 on Chaperonin GroEL was > 250 µM; against E. coli GroEL/ES [1], 21 µM; against HSP60/HSP10 it was 5.3 µM; at E. coli GroEL/ES [3] it was 6.7 µM.
With `O=C1C=C2CC3(O)COc4c(ccc(O)c4O)C3=C2C=C1O` (centres undefined) [HEMATEIN], the half-inhibitory concentration (IC50) was > 250 µM against Chaperonin GroEL, 12 µM in test [2], 3.6 µM against HSP60/HSP10 and 1.8 µM against E. coli GroEL/ES [3].
`Nc1ccc(O)c(C(=O)O)c1` [MESALAMINE]: half-maximal inhibition in test [2] (IC50) required 0.28 µM.
With `Cc1cc2nc3c(=O)[nH]c(=O)nc-3n(C[C@H](O)[C@H](O)[C@H](O)COP(=O)(O)O)c2cc1C` [RIBOFLAVIN 5'-PHOSPHATE SODIUM], the IC50 at Chaperonin GroEL is > 250 µM; at E. coli GroEL/ES [1], 0.77 µM; in test [2] it was 0.38 µM; on E. coli GroEL/ES [3], 85 µM.
Consider `CCCCN1CCC(COC(=O)c2cc(Cl)c(N)c3c2OCCO3)CC1`, for which the IC50 is > 250 µM against E. coli GroEL/ES [1], > 100 µM in test [2], > 100 µM against HSP60/HSP10 and > 100 µM against E. coli GroEL/ES [3].
Consider `Cc1ccc(C(=O)Nc2ccc(S(=O)(=O)O)c3cc(S(=O)(=O)O)cc(S(=O)(=O)O)c23)cc1NC(=O)c1cccc(NC(=O)Nc2cccc(C(=O)Nc3cc(C(=O)Nc4ccc(S(=O)(=O)O)c5cc(S(=O)(=O)O)cc(S(=O)(=O)O)c45)ccc3C)c2)c1` [SURAMIN], for which the IC50 against Chaperonin GroEL was > 250 µM; in test [2] it was > 100 µM; on HSP60/HSP10, 7.2 µM.
For the compound `C[C@H](CCC(=O)O)[C@H]1CC[C@H]2[C@@H]3CC[C@@H]4C[C@H](O)CC[C@]4(C)[C@H]3CC[C@]12C` [LITHOCHOLIC ACID], the IC50 at Chaperonin GroEL was > 250 µM; on E. coli GroEL/ES [1], 59 µM; in test [2], > 100 µM; against HSP60/HSP10, 10 µM.
On to `C=C(NC(=O)C(=C)NC(=O)c1csc(C2=N[C@@H]3c4csc(n4)[C@H]4NC(=O)c5csc(n5)[C@H]([C@](C)(O)[C@@H](C)O)NC(=O)[C@H]5CSC(=N5)/C(=C/C)NC(=O)[C@H]([C@@H](C)O)NC(=O)c5csc(n5)[C@]3(CC2)NC(=O)[C@H](C)NC(=O)C(=C)NC(=O)[C@H](C)NC(=O)[C@H]([C@@H](C)CC)N[C@@H]2C=Cc3c([C@H](C)O)cc(nc3[C@H]2O)C(=O)O[C@@H]4C)n1)C(N)=O` [THIOSTREPTON], for which the IC50 against Chaperonin GroEL is > 250 µM; in test [2], > 100 µM; against HSP60/HSP10 it was 13 µM; on E. coli GroEL/ES [3] it was 6.8 µM.
Regarding `CC1=NCCc2c1[nH]c1cc(O)ccc21` [HARMALOL], the IC50 on Chaperonin GroEL is > 250 µM; against HSP60/HSP10, > 100 µM; on E. coli GroEL/ES [3], > 100 µM.
As to `CC(C)(C)NCC(O)c1ccc(O)c(CO)c1` (centres undefined) [ALBUTEROL], the IC50 against E. coli GroEL/ES [1] was > 250 µM; in test [2], > 100 µM; on HSP60/HSP10, > 100 µM; against E. coli GroEL/ES [3] it was > 100 µM.
In the case of `CC(=O)O[C@H]1C(=O)[C@@]2(C)[C@H]([C@H](OC(=O)c3ccccc3)[C@]3(O)C[C@H](OC(=O)[C@H](O)[C@@H](NC(=O)c4ccccc4)c4ccccc4)C(C)=C1C3(C)C)[C@]1(OC(C)=O)CO[C@@H]1C[C@@H]2O` [PACLITAXEL], the 50% inhibitory concentration (IC50) against Chaperonin GroEL is > 250 µM; on E. coli GroEL/ES [1] it was 114 µM; against HSP60/HSP10 it was > 100 µM; on E. coli GroEL/ES [3], 56 µM.
Take `COc1cc(NC(C)CCCN)c2ncccc2c1` (centres undefined) [PRIMAQUINE]: the IC50 in test [2] is 2.9 µM; at HSP60/HSP10, > 100 µM.
In the case of `CCOc1nc2cccc(C(=O)O)c2n1Cc1ccc(-c2ccccc2-c2nnn[nH]2)cc1`, the concentration for half-maximal inhibition (IC50) was > 250 µM against E. coli GroEL/ES [1], > 100 µM in test [2], > 100 µM against HSP60/HSP10 and > 100 µM on E. coli GroEL/ES [3].
For IVERMECTIN, the figures for the IC50 (against Chaperonin GroEL; in test [2]) were > 250 µM and > 100 µM, respectively.
As to `Cc1cc(C(C#N)c2ccc(Cl)cc2)c(Cl)cc1NC(=O)c1cc(I)cc(I)c1O` (centres undefined) [CLOSANTEL], the IC50 against Chaperonin GroEL is > 250 µM; against E. coli GroEL/ES [1], 2 µM; in test [2], > 100 µM; at HSP60/HSP10, 2.8 µM.

These data come from ChEMBL document CHEMBL4392822, “HSP60/10 chaperonin systems are inhibited by a variety of approved drugs, natural products, and known bioactive molecules” (Bioorg Med Chem Lett, 2019).
